Data taken from patent US20050032873A1, “3-Amino chroman and 2-amino tetralin derivatives” (Wyeth, priority 2003, published 2005).
Read-outs that look alike come from different tables or passages of the source.

Columns and labels:
5-HT1A receptor [1] = target: T1, 5-HT1A receptor (Homo sapiens, UniProt P08908); experiment: 5-HT1A receptor affinity: displacement of [3H] 8-OH-DPAT; format: binding; design: expressed in transfected cells; conditions: displacement of [3H] 8-OH-DPAT; CHO cells stably transfected with human 5-HT1A receptors; read-out: 5-HT1A Receptor Affinity Ki
T1 sequence (P08908 1-422): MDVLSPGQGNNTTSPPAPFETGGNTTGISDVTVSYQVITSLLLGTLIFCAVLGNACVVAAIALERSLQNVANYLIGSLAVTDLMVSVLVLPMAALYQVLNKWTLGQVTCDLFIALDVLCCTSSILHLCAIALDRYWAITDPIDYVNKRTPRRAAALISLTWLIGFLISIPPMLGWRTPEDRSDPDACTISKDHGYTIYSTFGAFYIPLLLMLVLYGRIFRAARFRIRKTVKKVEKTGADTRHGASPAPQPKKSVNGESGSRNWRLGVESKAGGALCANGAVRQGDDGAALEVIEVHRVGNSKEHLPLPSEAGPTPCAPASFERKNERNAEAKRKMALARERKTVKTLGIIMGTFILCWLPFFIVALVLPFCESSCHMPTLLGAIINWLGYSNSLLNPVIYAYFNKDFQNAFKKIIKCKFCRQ

5-HT1A receptor [2] = target: T1, 5-HT1A receptor; experiment: cAMP accumulation assay, 5-HT1A function; format: cell-based; conditions: for EC50: cells marked EC50 (agonist); for Emax: in brackets after EC50 or IC50, read-out: 5-HT1A Function cAMP (Emax); for IC50: cells marked IC50 (antagonist), read-out: 5-HT1A Function cAMP IC50
[3] = target: T2, cloned human 5-HT1A receptors (Homo sapiens, UniProt P08908); experiment: 35S-GTPγS binding assay, 5-HT1A function; format: biochemical; conditions: for EC50: agonist potency; for IC50: antagonist potency, reversal of 8-OH-DPAT, read-out: 5-HT1A Function GTPγS IC50
T2 construct: expressed in transfected cells
T2 sequence (P08908 1-422): T1 sequence (P08908 1-422)

serotonin transporter = target: T3, serotonin transporter (Rattus norvegicus, UniProt P31652); experiment: 5-HT transporter affinity: displacement of 3H-paroxetine from male rat cortical membranes; format: binding; conditions: displacement of 3H-paroxetine; male rat cortical membranes; read-out: 5-HT Transporter Affinity Ki
T3 construct: displace ^3H-paroxetine from male rat cortical membranes; from tissue; host or cells: male rat cortical membranes

[4] = maximum stimulatory effect, in brackets after EC50, read-out: 5-HT1A Function GTPγS (Emax)
[5] = maximum inhibitory effect, in brackets after IC50, read-out: 5-HT1A Function GTPγS (Imax)

T3 sequence (P31652 whole entry): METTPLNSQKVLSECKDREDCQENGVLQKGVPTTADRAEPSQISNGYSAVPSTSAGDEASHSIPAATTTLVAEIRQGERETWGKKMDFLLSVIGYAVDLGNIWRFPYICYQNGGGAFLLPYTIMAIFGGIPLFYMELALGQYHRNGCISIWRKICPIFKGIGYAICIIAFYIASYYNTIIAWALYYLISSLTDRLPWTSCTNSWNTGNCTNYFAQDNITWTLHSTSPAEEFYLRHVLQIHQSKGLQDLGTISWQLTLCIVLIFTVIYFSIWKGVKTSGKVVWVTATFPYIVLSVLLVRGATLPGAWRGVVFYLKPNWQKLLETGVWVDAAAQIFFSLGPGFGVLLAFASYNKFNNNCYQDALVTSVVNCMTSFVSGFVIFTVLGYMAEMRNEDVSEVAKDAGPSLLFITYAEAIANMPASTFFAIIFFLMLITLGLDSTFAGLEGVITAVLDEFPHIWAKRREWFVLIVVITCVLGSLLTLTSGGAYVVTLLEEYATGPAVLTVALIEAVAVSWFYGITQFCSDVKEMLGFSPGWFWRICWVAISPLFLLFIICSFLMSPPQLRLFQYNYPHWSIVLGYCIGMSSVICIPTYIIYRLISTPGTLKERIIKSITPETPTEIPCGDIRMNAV

Compound CCCN(CCCc1c[nH]c2c(Cl)cccc12)C1COc2c(F)ccc(C(N)=O)c2C1 (stereo not shown) [Compound 113, 3-[[3-(7-chloro-1H-indol-3-yl)propyl](propyl)amino]-8-fluorochromane-5-carboxamide] has a Ki (5-HT1A receptor [1]) of 2.02 nM, an EC50 (5-HT1A receptor [2]) of 16 nM and an Emax (5-HT1A receptor [2]) of 91%. It also gave an EC50 [3] of 87.2 nM, an Emax [3, 4] of 56% and a Ki (serotonin transporter) of 51 nM.
For NC(=O)c1ccc(F)c2c1CC(NCCCc1c[nH]c3ccc(Cl)cc13)CO2 (stereo not shown) [Compound 114, 3-{[3-(5-chloro-1H-indol-3-yl)propyl]amino}-8-fluorochromane-5-carboxamide], the Ki (5-HT1A receptor [1]) was 97 nM, the EC50 (5-HT1A receptor [2]) was 244 nM and the Emax (5-HT1A receptor [2]) was 67.5%. It also gave an EC50 [3] of 1320 nM, an Emax [3, 4] of 64% and a Ki (serotonin transporter) of 69.5 nM.
CCN(CCCc1c[nH]c2ccc(Cl)cc12)C1COc2c(F)ccc(C(N)=O)c2C1 (stereo not shown) [Compound 115, 3-[[3-(5-chloro-1H-indol-3-yl)propyl](ethyl)amino]-8-fluorochromane-5-carboxamide] was tested, and the Ki (5-HT1A receptor [1]) was 6.04 nM, the EC50 (5-HT1A receptor [2]) was 46 nM and the Emax (5-HT1A receptor [2]) was 77%. For the same compound, the EC50 [3] was 52.2 nM, the IC50 [3] was 1990 nM and the Emax [3, 5] was 72%. It also gave an Emax [3, 4] of 38% and a Ki (serotonin transporter) of 21.4 nM.
CCCN(CCCc1c[nH]c2ccc(Cl)cc12)C1COc2c(F)ccc(C(N)=O)c2C1 (stereo not shown) [Compound 116, 3-[[3-(5-chloro-1H-indol-3-yl)propyl](propyl)amino]-8-fluorochromane-5-carboxamide] showed a Ki (5-HT1A receptor [1]) of 1.45 nM, an EC50 (5-HT1A receptor [2]) of 7.82 nM and an Emax (5-HT1A receptor [2]) of 80%. The EC50 [3] was 61.2 nM, the IC50 [3] was 843 nM and the Emax [3, 5] was 45%. The Emax [3, 4] was 50% and the Ki (serotonin transporter) was 151 nM.
Work on NC(=O)c1ccc(F)c2c1CC(N(CCCc1c[nH]c3ccc(Cl)cc13)C1CCC1)CO2 (stereo not shown) [Compound 117, 3-[[3-(5-chloro-1H-indol-3-yl)propyl](cyclobutyl)amino]-8-fluorochromane-5-carboxamide] yielded a Ki (5-HT1A receptor [1]) of 3.98 nM, an IC50 (5-HT1A receptor [2]) of 272 nM and an Emax (5-HT1A receptor [2]) of 0%. The IC50 [3] was 735 nM, the Emax [3, 5] was 100% and the Ki (serotonin transporter) was 75.5 nM.
For NC(=O)c1ccc(F)c2c1CC(N(CCCc1c[nH]c3ccc(Cl)cc13)CC1CC1)CO2 (stereo not shown) [Compound 118, 3-[[3-(5-chloro-1H-indol-3-yl)propyl](cyclopropylmethyl)amino]-8-fluorochromane-5-carboxamide], the Ki (5-HT1A receptor [1]) was 1.49 nM, the IC50 (5-HT1A receptor [2]) was 168 nM and the Emax (5-HT1A receptor [2]) was 0%. The IC50 [3] was 134 nM, the Emax [3, 5] was 69% and the Ki (serotonin transporter) was 41.4 nM.
With NC(=O)c1ccc(F)c2c1OCC(N(CCCCc1c[nH]c3ccc(F)cc13)CC1CC1)C2 (stereo not shown) [Compound 125, 3-{(cyclopropylmethyl)[4-(5-fluoro-1H-indol-3-yl)butyl]amino}-5-fluorochromane-8-carboxamide] the Ki (5-HT1A receptor [1]) was 86.5 nM, the EC50 (5-HT1A receptor [2]) was 367 nM and the Emax (5-HT1A receptor [2]) was 64%. It also gave an EC50 [3] of 2800 nM, an Emax [3, 4] of 63% and a Ki (serotonin transporter) of 6.8 nM.
Work on CCN(CCCCc1c[nH]c2ccc(F)cc12)C1COc2c(C(N)=O)ccc(F)c2C1 (stereo not shown) [Compound 127, 3-{ethyl[4-(5-fluoro-1H-indol-3-yl)butyl]amino}-5-fluorochromane-8-carboxamide] yielded a Ki (5-HT1A receptor [1]) of 326 nM, an EC50 (5-HT1A receptor [2]) of 781 nM and an Emax (5-HT1A receptor [2]) of 81.5%. It also gave an EC50 [3] of 1290 nM, an Emax [3, 4] of 50% and a Ki (serotonin transporter) of 9.9 nM.
CCCN(CCCc1c[nH]c2c(F)cc(F)cc12)C1COc2c(C(N)=O)ccc(F)c2C1 (stereo not shown) [Compound 129, 3-[[3-(5,7-difluoro-1H-indol-3-yl)propyl](propyl)amino]-5-fluorochromane-8-carboxamide] was tested, and the Ki (5-HT1A receptor [1]) was 170 nM, the EC50 (5-HT1A receptor [2]) was 707 nM and the Emax (5-HT1A receptor [2]) was 75.5%. It also gave an EC50 [3] of 9330 nM, an Emax [3, 4] of 100% and a Ki (serotonin transporter) of 6.8 nM.
NC(=O)c1ccc(F)c2c1OCC(N(CCCc1c[nH]c3c(F)cc(F)cc13)CC1CC1)C2 (stereo not shown) [Compound 130, 3-{(cyclopropylmethyl)[3-(5,7-difluoro-1H-indol-3-yl)propyl]amino}-5-fluorochromane-8-carboxamide] gave a Ki (5-HT1A receptor [1]) of 74.3 nM, an EC50 (5-HT1A receptor [2]) of 14.8 nM and an Emax (5-HT1A receptor [2]) of 72%. The EC50 [3] was 788 nM, the Emax [3, 4] was 39% and the Ki (serotonin transporter) was 166 nM.
With CCN(CCCc1c[nH]c2c(F)cc(F)cc12)C1COc2c(C(N)=O)ccc(F)c2C1 (stereo not shown) [Compound 132, 3-[[3-(5,7-difluoro-1H-indol-3-yl)propyl](ethyl)amino]-5-fluorochromane-8-carboxamide] the Ki (5-HT1A receptor [1]) was 95.6 nM, the EC50 (5-HT1A receptor [2]) was 112 nM and the Emax (5-HT1A receptor [2]) was 63%. For the same compound, the EC50 [3] was 2210 nM, the Emax [3, 4] was 98% and the Ki (serotonin transporter) was 50.3 nM.
With NC(=O)c1cccc2c1C[C@H](NCCCc1c[nH]c3ccc(F)cc13)CO2 [Compound 133a, (3S)-3-{[3-(5-fluoro-1H-indol-3-yl)propyl]amino}chromane-5-carboxamide] the Ki (5-HT1A receptor [1]) was 51.8 nM, the EC50 (5-HT1A receptor [2]) was 128 nM and the Emax (5-HT1A receptor [2]) was 53%. The EC50 [3] was 5000 nM, the Emax [3, 4] was 60% and the Ki (serotonin transporter) was 28.5 nM.
Compound COC(=O)c1cccc2c1CC(NCCCc1c[nH]c3c(F)cc(F)cc13)CO2 (stereo not shown) [Compound 135, Methyl 3-{[3-(5,7-difluoro-1H-indol-3-yl)propyl]amino}chromane-5-carboxylate] has a Ki (5-HT1A receptor [1]) of 19.9 nM, an EC50 (5-HT1A receptor [2]) of 274 nM and an Emax (5-HT1A receptor [2]) of 98%. The EC50 [3] was 441 nM, the Emax [3, 4] was 100% and the Ki (serotonin transporter) was 58 nM.
Work on COC(=O)c1cccc2c1CC(N(CCCc1c[nH]c3c(F)cc(F)cc13)C1CCC1)CO2 (stereo not shown) [Compound 136, Methyl 3-{cyclobutyl[3-(5,7-difluoro-1H-indol-3-yl)propyl]amino}chromane-5-carboxylate] yielded a Ki (5-HT1A receptor [1]) of 27.6 nM, an EC50 (5-HT1A receptor [2]) of 635 nM and an Emax (5-HT1A receptor [2]) of 89%. It also gave an EC50 [3] of 1330 nM, an Emax [3, 4] of 95% and a Ki (serotonin transporter) of 203 nM.
For O=C(NC1CCC1)c1cccc2c1CC(N(CCCc1c[nH]c3c(F)cc(F)cc13)C1CCC1)CO2 (stereo not shown) [Compound 143, N-cyclobutyl-3-{cyclobutyl[3-(5,7-difluoro-1H-indol-3-yl)propyl]amino}chromane-5-carboxamide], the Ki (5-HT1A receptor [1]) was 31.9 nM, the EC50 (5-HT1A receptor [2]) was 523 nM and the Emax (5-HT1A receptor [2]) was 91%. The EC50 [3] was 1390 nM, the Emax [3, 4] was 100% and the Ki (serotonin transporter) was 4.4 nM.
In the case of O=C(NCC1CC1)c1cccc2c1CC(N(CCCc1c[nH]c3c(F)cc(F)cc13)C1CCC1)CO2 (stereo not shown) [Compound 144, 3-{cyclobutyl[3-(5,7-difluoro-1H-indol-3-yl)propyl]amino}-N-(cyclopropylmethyl)chromane-5-carboxamide], the Ki (5-HT1A receptor [1]) is reported as 169 nM, the EC50 (5-HT1A receptor [2]) is reported as 4990 nM and the Emax (5-HT1A receptor [2]) is reported as 100%. It also gave an EC50 [3] of 7600 nM, an Emax [3, 4] of 73% and a Ki (serotonin transporter) of 5.5 nM.
With CNC(=O)c1ccc(F)c2c1C[C@H](N(CCCCc1c[nH]c3ccc(F)cc13)C1CCC1)CO2 [Compound 145a, (3S)-3-{cyclobutyl[4-(5-fluoro-1H-indol-3-yl)butyl]amino}-8-fluoro-N-methylchromane-5-carboxamide] the Ki (5-HT1A receptor [1]) was 288 nM, the IC50 (5-HT1A receptor [2]) was 668 nM and the Emax (5-HT1A receptor [2]) was 0%. It also gave an IC50 [3] of 5470 nM, an Emax [3, 5] of 100% and a Ki (serotonin transporter) of 16.1 nM.
Work on CNC(=O)c1ccc(F)c2c1C[C@@H](N(CCCCc1c[nH]c3ccc(F)cc13)C1CCC1)CO2 [Compound 145b, (3R)-3-{cyclobutyl[4-(5-fluoro-1H-indol-3-yl)butyl]amino}-8-fluoro-N-methylchromane-5-carboxamide] yielded a Ki (5-HT1A receptor [1]) of 6.29 nM, an IC50 (5-HT1A receptor [2]) of 848 nM and an Emax (5-HT1A receptor [2]) of 0%. For the same compound, the IC50 [3] was 1270 nM, the Emax [3, 5] was 100% and the Ki (serotonin transporter) was 8.63 nM.
